Results: the supplement of paper PMC8617591

Assays:
[1] = system: Mycobacterium tuberculosis Erdman (autoluminescent); assay: Einf, fitted maximum growth inhibition of three-drug combination (fraction); higher = stronger maximal inhibition
Description: (§1)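 DiaMOND equipotent three-drug combination dose responses (10 doses, 1.5- or 2-fold spacing, centred on IC90) against autoluminescent M. tuberculosis Erdman in 8 in vitro models. Read-out is OD600, or luminescence for the intracellular and dormancy models, normalised to untreated wells. Hill-fit Einf, AUC25 and GRinf are potency metrics; FIC50 and FIC90 are total Loewe fractional inhibitory concentrations as log2 (negative = synergy).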

[2] = system: Mycobacterium tuberculosis Erdman (autoluminescent); assay: AUC25, normalised area under dose response up to IC25 (three-drug combination) (fraction (0-1)); higher = more potent at low dose
Description: as §1

[3] = system: Mycobacterium tuberculosis Erdman (autoluminescent); assay: GRinf, maximum normalised growth rate inhibition (three-drug combination) (unitless (-1 to 1)); higher = less effect (negative = killing)
Description: as §1

[4] = system: Mycobacterium tuberculosis Erdman (autoluminescent); assay: total FIC90 (Loewe) at 90% inhibition, three-drug combination (log2); higher = more antagonistic
Description: as §1

[5] = system: Mycobacterium tuberculosis Erdman (autoluminescent); assay: total FIC50 (Loewe) at 50% inhibition, three-drug combination (log2); higher = more antagonistic
Description: as §1

COc1c(N2C[C@@H]3CCCN[C@@H]3C2)c(F)cc2c(=O)c(C(=O)O)cn(C3CC3)c12 [moxifloxacin] + O=[N+]([O-])c1cn2c(n1)OC[C@@H](OCc1ccc(OC(F)(F)F)cc1)C2 [pretomanid] + NC(=O)c1cnccn1 [pyrazinamide]
Conditions | AUC25, [2] | Einf, [1] | GRinf, [3] | total FIC50, [5] | total FIC90, [4]
in vitro model: acidic pH 5.7, time point: constant (~7 days, model-specific) | 0.0694 | 0.831 | -0.227 | -0.148 | –
in vitro model: acidic pH 5.7, time point: terminal (~4-5 doublings, model-specific) | 0.0654 | 0.956 | -0.278 | 0.329 | -0.227
in vitro model: intracellular J774, time point: constant = terminal | – | 0.967 | -0.384 | – | 0.419

Conditions | AUC25, [2] | Einf, [1] | GRinf, [3] | total FIC50, [5] | total FIC90, [4]
in vitro model: butyrate, time point: constant (~7 days, model-specific) | 0.111 | 0.909 | 0.0413 | 0.152 | 1.77
in vitro model: butyrate, time point: terminal (~4-5 doublings, model-specific) | 0.0867 | 0.967 | -0.0495 | 0.235 | 0.86
in vitro model: cholesterol 0.05 mM, time point: constant (~7 days, model-specific) | 0.128 | 0.753 | -0.295 | – | –
in vitro model: cholesterol 0.05 mM, time point: terminal (~4-5 doublings, model-specific) | 0.102 | 0.926 | -0.334 | 1.11 | –
in vitro model: cholesterol-high 0.2 mM, time point: constant (~7 days, model-specific) | 0.0858 | 0.914 | -0.29 | 0.415 | –
in vitro model: cholesterol-high 0.2 mM, time point: terminal (~4-5 doublings, model-specific) | 0.0802 | 1 | -0.594 | 0.654 | 0.481
in vitro model: dormancy (butyrate + nitrate, low O2), time point: constant (~7 days, model-specific) | 0.0852 | 0.871 | 0.199 | 0.104 | -0.0729
in vitro model: dormancy (butyrate + nitrate, low O2), time point: terminal (~4-5 doublings, model-specific) | 0.0687 | 0.982 | -0.232 | 0.195 | 0.876
in vitro model: standard 7H9 glycerol, time point: constant = terminal | 0.071 | 0.972 | -0.151 | – | –
in vitro model: valerate, time point: constant (~7 days, model-specific) | 0.0976 | 0.89 | 0.0242 | -0.452 | –
in vitro model: valerate, time point: terminal (~4-5 doublings, model-specific) | 0.0676 | 0.945 | 0.00495 | 0.11 | -0.163

O=[N+]([O-])c1cn2c(n1)OC[C@@H](OCc1ccc(OC(F)(F)F)cc1)C2 [pretomanid] + CO[C@H]1/C=C/O[C@@]2(C)Oc3c(C)c(O)c4c(O)c(c(/C=N/N5CCN(C6CCCC6)CC5)c(O)c4c3C2=O)NC(=O)/C(C)=C\C=C\[C@H](C)[C@H](O)[C@@H](C)[C@@H](O)[C@@H](C)[C@H](OC(C)=O)[C@@H]1C [rifapentine] + CO[C@H]1/C=C/O[C@@]2(C)Oc3c(C)c(O)c4c(O)c(c(/C=N/N5CCN(C)CC5)c(O)c4c3C2=O)NC(=O)/C(C)=C\C=C\[C@H](C)[C@H](O)[C@@H](C)[C@@H](O)[C@@H](C)[C@H](OC(C)=O)[C@@H]1C [rifampicin]
Conditions | AUC25, [2] | Einf, [1] | GRinf, [3] | total FIC50, [5] | total FIC90, [4]
in vitro model: acidic pH 5.7, time point: constant (~7 days, model-specific) | 0.0846 | 0.906 | -0.198 | 0.583 | –
in vitro model: acidic pH 5.7, time point: terminal (~4-5 doublings, model-specific) | 0.0433 | 0.982 | -0.177 | 0.863 | 0.271
in vitro model: intracellular J774, time point: constant = terminal | – | 0.998 | -0.321 | – | 0.0281

Conditions | AUC25, [2] | Einf, [1] | GRinf, [3] | total FIC50, [5] | total FIC90, [4]
in vitro model: butyrate, time point: constant (~7 days, model-specific) | 0.0997 | 0.913 | 0.0188 | 0.122 | -0.618
in vitro model: butyrate, time point: terminal (~4-5 doublings, model-specific) | 0.0845 | 0.963 | -0.00218 | -0.0327 | -0.0222
in vitro model: cholesterol 0.05 mM, time point: constant (~7 days, model-specific) | 0.12 | 0.706 | -0.115 | 0.545 | –
in vitro model: cholesterol 0.05 mM, time point: terminal (~4-5 doublings, model-specific) | 0.0882 | 0.891 | -0.0855 | 0.37 | 0.821
in vitro model: cholesterol-high 0.2 mM, time point: constant (~7 days, model-specific) | 0.0723 | 0.899 | -0.242 | 0.542 | 0.699
in vitro model: cholesterol-high 0.2 mM, time point: terminal (~4-5 doublings, model-specific) | 0.0602 | 0.992 | -0.654 | 0.62 | 0.433
in vitro model: dormancy (butyrate + nitrate, low O2), time point: constant (~7 days, model-specific) | 0.0773 | 0.885 | 0.156 | 0.534 | 0.288
in vitro model: dormancy (butyrate + nitrate, low O2), time point: terminal (~4-5 doublings, model-specific) | 0.0339 | 0.968 | -0.0787 | 0.206 | 0.101
in vitro model: standard 7H9 glycerol, time point: constant = terminal | 0.0607 | 0.906 | 0.057 | 0.0183 | –
in vitro model: valerate, time point: constant (~7 days, model-specific) | 0.0681 | 0.866 | 0.0606 | 0.168 | –
in vitro model: valerate, time point: terminal (~4-5 doublings, model-specific) | 0.0473 | 0.937 | 0.0285 | 0.389 | 0.0371
